Measurements as given in a melting point compilation (Tetko et al.; mined from patent text by program, amines drawn as free bases though some values may be those of a salt).

SMILES	melting point [°C]
CCCCCc1cc(-c2ccc(F)cc2C(C)O)c(C(C)C)nc1C(C)C (stereo not given)	84 to 86
COc1ccc(N2CCN(n3c(C)n[nH]c3=O)CC2)cc1	264
COc1ncccc1-c1ccc(Cl)c(OC2SCC(O)C(O)C2O)c1 (stereo not given)	119
CCCCCCCC/C=C\CCCCCCCC(=O)Nc1nc(CC(=O)O)cs1	106 to 108
CCCCCCCCc1ncc(-c2ccc(O)cc2)cn1	94 to 96
O=C(O)C(Cl)=C(Cl)C(=O)O	107 to 110
CCCCCCCCCCCCCCOc1ccc(CNc2ccc(CO)cc2)cc1	85 to 87
O=[N+]([O-])c1ccc2c(c1)C(c1ccccc1Cl)=NCc1nc(CO)cn1-2	173 to 174
CCOC(OCC)C1Cc2c(Br)ccc(OC)c2C1=O (stereo not given)	76 to 78
CCn1ncnc1COc1nc2c(cc1C(C)(C)C)nnn2-c1cc(F)ccc1F	148 to 150
COC(=O)CNc1ccc2c(c1)OCO2	105 to 106
CC(Cc1ccc(C2OC(N)=NC2=O)cc1)NCC(O)c1cccc(C(F)(F)F)c1 (stereo not given)	152 to 164
Nc1ncnc2c1c(-c1ccc(Oc3ccccc3)cc1)cn2[C@H]1CC[C@@H](N2CCCC2)CC1	101 to 104
Cc1cc(C(=O)CBr)cc(C)c1O	128 to 131
CC(=O)c1ccc2c(c1)SC(C)(C)S2	75 to 76
CCCCCCCCCCCCCCCCCCOc1cc(OCc2ccccc2)cc(C(=O)N(CC(=O)O)CC(=O)O)c1	93 to 95
CCc1cc2c([nH]c1=O)C(=O)C=CC2=O	168
BrCCCCCc1nnnn1C1CCCCC1	57 to 59
CC1(C)COC(=O)N1c1nc(-c2ccc(Br)cc2)cs1	165 to 167
COc1cc2nc(N3CCN(C(=O)C45CC6CC(CC(C6)C4)C5)CC3)nc(N)c2cc1OC	237 to 240
O=C1N(Cc2ccc(C(F)(F)F)o2)c2ccccc2C12COc1cc3c(cc12)OCO3 (stereo not given)	103 to 105
CCCCOc1nc(NC(C)=O)nc2ccc(Cl)nc12	158 to 159
CC(CN1CC=C(c2ccc(Cl)cc2)CC1)C(O)c1ccccc1 (stereo not given)	103 to 105
CCCN=C(N)Nc1ccnc(CCCCC(N)=O)n1	212 to 214
O=C(NCCc1nnn[nH]1)C(CS)C(F)(F)F (stereo not given)	182 to 184
CCOC(=O)C1=Cc2cc(C(C)=O)ccc2OC1C(F)(F)F (stereo not given)	101 to 103

SMILES	melting point [°C]
CCOC(=O)c1nnnn1Cc1ccccc1	58 to 61
COC(=O)C(O)C1(O)CCC2C3CCC4=CC(=O)C=CC4(C)C3C(O)CC21C (stereo not given)	171 to 173
CCCC1NC(C(=O)O)Cc2c1[nH]c1ccccc21 (stereo not given)	210 to 211
Cc1cncc(C)c1-c1c(C)cc(C=Cc2cc(C(C)(C)C)c(O)c(C(C)(C)C)c2)cc1C	234 to 235
Cn1c(=O)ccc2cnc(N)nc21	237 to 253
O=C(C(c1ccccc1)n1cnc2[nH]ncc2c1=S)N1CCN(c2ccccn2)CC1 (stereo not given)	242 to 246
CCCCCCCCCC[C@H](O)c1ccc2ccccc2c1	53 to 54
Fc1nc(F)c(F)c(N2CCCNCC2)c1F	58 to 61
COc1cc(Nc2c(C#N)cnc3cc(-c4ccccc4CN4CCOCC4)ccc23)c(Cl)cc1Cl	107 to 109
CCCCC1(C2CCCC2)Cc2cc(OCC(=O)O)c(Cl)c(Cl)c2C1=O (stereo not given)	173 to 174
CC(=O)c1c(C)c(NC(=O)CC(C)(C)C)c(C)c2c1OCC2c1ccc(C(C)C)cc1 (stereo not given)	176 to 177
CC1(C)C(=O)N(c2ccc(C#N)c(C(F)(F)F)c2)C(=O)N1CCCO	131 to 132
CCN1c2ncccc2C(=O)N(C)c2ccc(-c3cnn(C)c3)nc21	65 to 67
CNC(=O)CCC(O)c1ccccc1 (stereo not given)	67 to 69
CCOC(=O)c1cc(=O)c2cccc(N3CCN(C)CC3)c2o1	124 to 125
N#Cc1ccc2c(c1)C(=O)N1CCC[C@@H]1CO2	164 to 165
CS(=O)(=O)c1ccc(C(=O)N[C@H]2CC[C@H](CCN3CCC(c4cccc5c4CCO5)CC3)CC2)s1	255
CCOC(=O)c1ccc(C(F)(F)F)c(N)c1	38 to 39
COc1cc2cc3c(Nc4ccc(Oc5ccccc5)c(Cl)c4)c(C#N)cnc3cc2cc1OCCN1CCOCC1	190 to 194
N=C(Nc1ccccc1)Nc1nc(-c2ccccc2)cs1	179 to 180
CCc1nc(C)c(C(C)(O)c2ccsc2)o1 (stereo not given)	77.5 to 79
COC(=O)c1c(C)oc(C)c1-c1ccc(F)cc1	34 to 35
CN(CCO)S(=O)(=O)c1cc([N+](=O)[O-])c(Cl)s1	62
CCCCN(CCCC)c1ccc(C=CC2=C(OC)C(=CC=CC3=C(C#N)C(=C(C#N)C#N)OC3(C)C)CC(C)(C)C2)c(OC)c1	244 to 246
CCCn1c(I)c2c3c(cccc31)C1CC(NC(=O)N(CC)CC)CN(C)C1C2 (stereo not given)	114 to 117

More lines, now with the values ahead:

melting point [°C]	SMILES
210 to 211	Nc1cc(C(=O)O)cc(SCc2ccccn2)c1-c1ccccc1
172	CC(=O)N1CCN(CCOC2c3ccccc3C(=O)N2c2ccc3ccc(Cl)nc3n2)CC1 (stereo not given)
140 to 141	NC(=O)c1ccc(C(F)(F)F)cc1-c1cnccc1Oc1cccc(CCC(=O)N2CCN(Cc3ccc4c(c3)OCO4)CC2)c1
191 to 193	Cc1nccn1CCC(C(N)=O)(c1ccccc1)c1ccccc1
145 to 146	O=C(O)C1CCCc2c(OCc3ccccc3)cccc21 (stereo not given)
70	COc1ccc2nccc(C(=O)CC[C@@H]3CCN(CC#Cc4cc(F)cc(F)c4F)C[C@@H]3C(=O)O)c2c1
157 to 159	CNc1nc(-c2cccc(NC(=O)c3ccc(Cl)nc3)c2)c2cc(OC)c(OC)cc2n1
123	CN(Cc1ccc(-c2ccc(N3C[C@H](Cn4ccnn4)OC3=O)cc2F)cn1)CC(O)CO (stereo not given in full)
178	O=C(O)Cc1nn(Cc2nc3cc(F)cc(F)c3s2)c(=O)c2ccccc12
115 to 117	CC(=O)c1ccc(OCCN2CCN(c3cc(Cl)nnc3Cl)CC2)cc1
178	CC(C)(C)c1ccc(/C=C/C(=O)Nc2ccc3ccn(CCO)c3c2)cc1
96.4 to 98.3	O=C(Nc1ccccc1)c1ccccc1Cl
120	Cc1c(CNc2cc(CO)cc(CO)c2)nnn1Cc1ccc(Cl)c(Cl)c1
158 to 160	O=C(O)CCc1cc2cc(Cl)ccc2n1S(=O)(=O)c1ccc(Cl)cc1
271 to 275	COc1ccccc1-n1c(=O)[nH]c2c(C(N)=O)nc(-c3cccc(C(F)(F)F)c3)nc21
202 to 203	NS(=O)(=O)c1ccc(-c2c(F)c(F)c(F)c(F)c2-c2ccc(F)cc2)cc1
197 to 198	O=c1nc(-c2ccccn2)sc2ccc(OCCCO)cc12
240 to 242	CCOC(=O)c1nnc2ccc(NC(=O)c3ccccc3OC(C)=O)cc2c1O
204	Cc1ccc2cccc(OCc3c(Cl)ccc(S(=O)(=O)N(C)Cc4cccc(C(=O)O)c4)c3Cl)c2n1
114 to 116	COC(=O)c1cc(OC)ccc1Oc1cc(Cl)ccc1[N+](=O)[O-]
208 to 209	O=c1c(Cc2ccccc2)cn(-c2ccc(F)cc2)c2ncccc12
122 to 124	CCCCN(CC1Cc2cc(Cl)cc(Cl)c2O1)C(=O)n1cncn1 (stereo not given)
184 to 185	CCN(CC)Cc1ccc2[nH]c(-c3ccccc3F)cc(=O)c2c1
120	CCCO[C@@H](C)C(=O)Oc1ccc(-c2ccc(O)cc2)cc1
78 to 79	N#Cc1ccc(-c2ccccc2F)c(F)c1

melting point [°C]	SMILES
90 to 93	c1ccc(CN2C(=NCCCn3ccnc3)c3cccc4cccc2c34)cc1
213 to 215	Cc1cc(C(=O)O)c(NC(=O)Nc2ccc(Oc3ccccc3)cc2)s1
49 to 50	COC(=O)C#CC(=O)c1ccc(Cl)cc1
139 to 141	Cc1noc(C)c1-c1cn(Cc2ccccc2)c(=O)c2ccccc12
100 to 101	Cc1cc(-c2ccccc2)c2ccccc2n1
292 to 294	COc1ccc2c(-c3ccccc3)c(C(=O)O)c(=O)[nH]c2c1
149 to 150	Cc1cc(-c2cc(CO)c(=O)n(Cc3ccccc3Cl)n2)ccc1F
163 to 165	OC(c1ccccc1)(c1ccc(Cl)cc1)c1ncc[nH]1 (stereo not given)
80 to 82	Cc1nc(-c2c(F)cccc2F)nn1-c1ccccc1C(F)(F)F
222	O=C(O)c1cc(-c2ccccc2)c2ccsc2c1
192 to 195	C[C@H](NC(=O)c1ccc(Cn2nnc(-c3ccc(OC(=O)C(C)(C)C)cc3)n2)cc1)C(=O)O
125 to 127	CCN1C(=O)C(C)(C)C(=O)N(C)c2cc(CN(CCn3ccc4ccsc4c3=O)Cc3cccnc3C)ccc21
183 to 184	CC1(C)COc2ccc(C[C@H]3NC(=O)O[C@H]3c3cccc(Cl)c3)cc21 (racemic)
106 to 108	CC(C)Oc1cc(CCCOc2nc(Cc3ccccc3)sc2CC(=O)O)n(Cc2ccc(Cl)cc2Cl)n1
231 to 233	Oc1ccc(Cn2cnc3c(-c4ccco4)ncnc32)cc1
176 to 177	COc1ccc(/C=C/C=C/C(=O)Oc2ccc([N+](=O)[O-])cc2)cc1
178	Cn1c(=O)cc(-c2cccc(Cl)c2)c2cc(C(O)(c3ccc(Cl)cc3)c3cnccc3Cl)ccc21 (stereo not given)
118 to 119	O=C(O)CCc1cnoc1-c1ccc(F)c(Cl)c1
122	N#Cc1ccc(C(=O)c2ccc(OC3OC(CO)C(O)C(O)C3O)cc2)cc1 (stereo not given)
195 to 196	O=C1CSc2ccc3ccccc3c2N1
140 to 143	Cc1ccc(NC(=O)c2cccnc2Oc2cccc(Cl)c2)cc1
148 to 152	COC(=O)c1ccc(-c2nnc(CSCCOc3ccc(Cl)cc3Cl)o2)cc1
124 to 125	COC(=O)Cc1ccc(Sc2ccccc2C(=O)N(C)C)c([N+](=O)[O-])c1
174 to 176	CC(C(=O)O)C(=O)NCCC=C1c2ccccc2CCc2ccccc21 (stereo not given)
